Measurements taken from US20110318768A1, “METHOD FOR DETERMINING SENSITIVITY OF TUMOR CELLS TO TYROSINE KINASE INHIBITOR AND COMPUTER PROGRAM PRODUCT” (SYSMEX CORPORATION, priority 2010, published 2011).

Key:
Experiment in all cases: Tyrosine kinase activity inhibition rate in cell membrane fraction (Poly-Glu4-Tyr substrate)
Assay type in all cases: biochemical
[1] = test system: tyrosine kinase in cell membrane fraction of HCC1419; conditions: for Inhibition rate: 25 μM kinase inhibitor, 25 μM ATP
Method: (§1) Breast cancer cell lines shown in Table 3 were cultured in a 150 mm dish so as to be about 80% confluent, the cells were recovered using PBS and a scraper, and a cell pellet was obtained by centrifugal operation (900×g, for 5 minutes, at 4° C.). The pellet was frozen with liquid nitrogen and stored at −80° C. until preparation of the measurement sample.
(§2) 500 μl of NP40 (−) solubilized buffer (20 mM HEPES (pH 7.4)), (w/v) % glycerol, 0.2% protease inhibitor cocktail (#P8340: Sigma-Aldrich (product composition: 104 mM AEBSF, 80 μM aprotinin, 4 mM bestatin, 1.4 mM E-64, 2 mM leupeptin, 1.5 mM Pepstatin A), 50 mM NaF and 200 μM Na3VO4) was added to the cell pellet, followed by stirring for 2 seconds three times using a vortex mixer. After being allowed to stand for 10 minutes, the soluble fraction was removed by centrifugal operation (at 20000×g, for 30 minutes, at 4° C.). The obtained pellet was resuspended in 500 μl of NP40 (−) solubilized buffer, the soluble fraction was again removed by centrifugal operation (at 20000×g, for 20 minutes, at 4° C.), and the pellet was washed. The pellet was resuspended by adding 500 μl of NP40 (+) solubilized buffer (a buffer prepared by adding NP-40 to the NP40 (−) solubilized buffer at a final concentration of 1%) to the pellet, pipetting fifty times, and vortexing for 2 seconds three times. After being allowed to stand for 10 minutes, a cell membrane fraction containing a membrane protein was obtained by centrifugal operation (at 20000×g, for 40 minutes, at 4° C.). The protein concentration of the fraction was measured by DC protein assay (#500-0116 JA: Bio-Rad) and the fraction was used as a sample for kinase activity measurement. The sample was frozen with liquid nitrogen and stored at −80° C. until used for the following kinase activity measurement.
(§3) NeutrAvidin Coated Plates (HBC) (96 white plate; #15509: Pierce) were washed three times with 300 μl of TBS-T (20 mM Tris-HCl (pH 7.4)), 150 mM NaCl, 0.1% Tween), and then 100 μl of Poly-Glu4-Tyr biotin conjugate (#12440: Upstate) which had been diluted to 1 μg/ml with TBS (20 mM Tris-HCl (pH 7.4), 150 mM NaCl) was added to the wells. After shaking at 37° C. and 400 rpm for 90 minutes, the wells were washed with 300 μl of TBS-T three times and a measuring plate was obtained.
(§4) The measurement sample was diluted with a kinase buffer (20 mM HEPES (pH 7.4), 25 mM MgCl2, 1.25 mM MnCl2, 250 μM Na3VO4, 12.5 (w/v) % glycerol) so as to adjust the protein concentration to 6.25 μg/ml. The diluted measurement sample was transferred to wells of a 96 well V bottom plate. A DMSO solution (inhibitor concentration: 5 mM) containing one type of tyrosine kinase inhibitors (Inhibitors 1 to 10 shown in Table 6) was added to the wells at a ratio of 1:160 based on the diluted measurement sample solution, followed by mixing thereof. As the control, DMSO was added to the diluted measurement sample at the same ratio as the solution of the inhibitor. The used tyrosine kinase inhibitors are represented as Inhibitors 1 to 10 in Table 6.
(§5) After addition of the inhibitors, a mixed solution of the measurement sample and the inhibitor was allowed to stand at room temperature for 10 minutes. 40 μl of the mixed solution was transferred to wells of the measuring plate and 10 μl of an ATP solution (20 mM HEPES (pH 7.4), […]) as the phosphate group donor was added to the wells.
(§6) The composition of the solution in the wells is as follows: protein concentration: 5 μg/ml, 20 mM HEPES (pH 7.4), 20 mM MgCl2, 1 mM MnCl2, 200 μM Na3VO4, 10 (w/v) % glycerol, 25 μM ATP, 25 μM kinase inhibitor.
(§7) After shaking the measuring plate at 37° C. and 400 rpm for 60 minutes, the solution was removed from the measuring plate, and the wells were washed with 300 μl of TBS-T three times. 100 μl of Starting Block T20 (TBS) (#37543: Pierce) as a blocking solution was added to the wells, followed by blocking at 37° C. and 400 rpm for 10 minutes. The blocking solution was removed from the measuring plate. […]

[2] = test system: tyrosine kinase in cell membrane fraction of MCF7; conditions: for Inhibition rate: 25 μM kinase inhibitor, 25 μM ATP
Method: as §1, §2, §3, §4, §5, §6, §7

[3] = test system: tyrosine kinase in cell membrane fraction of BT-474; conditions: for Inhibition rate: 25 μM kinase inhibitor, 25 μM ATP
Method: as §1, §2, §3, §4, §5, §6, §7

[4] = test system: tyrosine kinase in cell membrane fraction of MDA-MB-231; conditions: for Inhibition rate: 25 μM kinase inhibitor, 25 μM ATP
Method: as §1, §2, §3, §4, §5, §6, §7

[5] = test system: tyrosine kinase in cell membrane fraction of T47D; conditions: 25 μM kinase inhibitor, 25 μM ATP
Method: as §1, §2, §3, §4, §5, §6, §7

[6] = test system: tyrosine kinase in cell membrane fraction of HCC1806; conditions: for Inhibition rate: 25 μM kinase inhibitor, 25 μM ATP
Method: as §1, §2, §3, §4, §5, §6, §7

[7] = test system: tyrosine kinase in cell membrane fraction of AU565; conditions: for Inhibition rate: 25 μM kinase inhibitor, 25 μM ATP
Method: as §1, §2, §3, §4, §5, §6, §7

[8] = test system: tyrosine kinase in cell membrane fraction of HCC1428; conditions: for Inhibition rate: 25 μM kinase inhibitor, 25 μM ATP
Method: as §1, §2, §3, §4, §5, §6, §7

[9] = test system: tyrosine kinase in cell membrane fraction of UACC893; conditions: for Inhibition rate: UACC893, 25 μM kinase inhibitor, 25 μM ATP
Method: as §1, §2, §3, §4, §5, §6, §7

[10] = test system: tyrosine kinase in cell membrane fraction of HS578T; conditions: for Inhibition rate: 25 μM kinase inhibitor, 25 μM ATP
Method: as §1, §2, §3, §4, §5, §6, §7

[11] = test system: tyrosine kinase in cell membrane fraction of MDA-MB-157; conditions: for Inhibition rate: 25 μM kinase inhibitor, 25 μM ATP
Method: as §1, §2, §3, §4, §5, §6, §7

[12] = test system: tyrosine kinase in cell membrane fraction of BT-549; conditions: for Inhibition rate: 25 μM kinase inhibitor, 25 μM ATP
Method: as §1, §2, §3, §4, §5, §6, §7

[13] = test system: tyrosine kinase in cell membrane fraction of BT-20; conditions: for Inhibition rate: 25 μM kinase inhibitor, 25 μM ATP
Method: as §1, §2, §3, §4, §5, §6, §7

[14] = test system: tyrosine kinase in cell membrane fraction of HCC1569; conditions: for Inhibition rate: 25 μM kinase inhibitor, 25 μM ATP
Method: as §1, §2, §3, §4, §5, §6, §7

[15] = test system: tyrosine kinase in cell membrane fraction of HCC1937; conditions: for Inhibition rate: 25 μM kinase inhibitor, 25 μM ATP
Method: as §1, §2, §3, §4, §5, §6, §7

[16] = test system: tyrosine kinase in cell membrane fraction of ZR-75-1; conditions: for Inhibition rate: 25 μM kinase inhibitor, 25 μM ATP
Method: as §1, §2, §3, §4, §5, §6, §7

[17] = test system: tyrosine kinase in cell membrane fraction of MDA-MB-436; conditions: for Inhibition rate: 25 μM kinase inhibitor, 25 μM ATP
Method: as §1, §2, §3, §4, §5, §6, §7

Structure (SMILES) | Inhibition rate [1] | Inhibition rate [2] | Inhibition rate [3] | Inhibition rate [4] | Inhibition rate [5] | Inhibition rate [6] | Inhibition rate [7] | Inhibition rate [8] | Inhibition rate [9] | Inhibition rate [10] | Inhibition rate [11] | Inhibition rate [12] | Inhibition rate [13] | Inhibition rate [14] | Inhibition rate [15] | Inhibition rate [16] | Inhibition rate [17] | further results
COc1cc2ncnc(Nc3ccc(Oc4ccccc4)cc3)c2cc1OC [Inhibitor 10, 4-(4′-phenoxyanilino)-6,7-dimethoxyquinazoline] | 36.3% | 49.2% | 37.6% | 63.6% | 42.3% | 67.1% | 36.8% | 43.7% | 25.6% | 58.2% | 60.3% | 60.6% | 56.6% | 71.3% | 50.1% | 55.8% | 44.9% | Example 1 Inhibitory capacity of Src inhibitor [1]: low (the term “low” means a cell line whose inhibition rate of the Src inhibitor is lower than the threshold value (=43.4%)); Example 1 Inhibitory capacity of Src inhibitor [2]: high (the term “high” means a cell line whose inhibition rate of the Src inhibitor is more than the threshold value); Example 1 Inhibitory capacity of Src inhibitor [3]: low (the term “low” means a cell line whose inhibition rate of the Src inhibitor is lower than the threshold value (=43.4%)); Example 1 Inhibitory capacity of Src inhibitor [4]: high (the term “high” means a cell line whose inhibition rate of the Src inhibitor is more than the threshold value); Example 1 Inhibitory capacity of Src inhibitor [6]: high (the term “high” means a cell line whose inhibition rate of the Src inhibitor is more than the threshold value); Example 1 Inhibitory capacity of Src inhibitor [7]: low (the term “low” means a cell line whose inhibition rate of the Src inhibitor is lower than the threshold value (=43.4%)); Example 1 Inhibitory capacity of Src inhibitor [8]: high (the term “high” means a cell line whose inhibition rate of the Src inhibitor is more than the threshold value); Example 1 Inhibitory capacity of Src inhibitor ([9]; UACC-893): low (the term “low” means a cell line whose inhibition rate of the Src inhibitor is lower than the threshold value (=43.4%)); Example 1 Inhibitory capacity of Src inhibitor [10]: high (the term “high” means a cell line whose inhibition rate of the Src inhibitor is more than the threshold value); Example 1 Inhibitory capacity of Src inhibitor [11]: high (the term “high” means a cell line whose inhibition rate of the Src inhibitor is more than the threshold value); Example 1 Inhibitory capacity of Src inhibitor [12]: high (the term “high” means a cell line whose inhibition rate of the Src inhibitor is more than the threshold value); Example 1 Inhibitory capacity of Src inhibitor [13]: high (the term “high” means a cell line whose inhibition rate of the Src inhibitor is more than the threshold value); Example 1 Inhibitory capacity of Src inhibitor [14]: high (the term “high” means a cell line whose inhibition rate of the Src inhibitor is more than the threshold value); Example 1 Inhibitory capacity of Src inhibitor [15]: high (the term “high” means a cell line whose inhibition rate of the Src inhibitor is more than the threshold value); Example 1 Inhibitory capacity of Src inhibitor [16]: high (the term “high” means a cell line whose inhibition rate of the Src inhibitor is more than the threshold value); Example 1 Inhibitory capacity of Src inhibitor [17]: high (the term “high” means a cell line whose inhibition rate of the Src inhibitor is more than the threshold value)
CS(=O)(=O)CCNCc1nc(-c2ccc3ncnc(Nc4ccc(OCc5cccc(F)c5)c(Cl)c4)c3c2)cs1.Cl.Cl [Inhibitor 5, N-[3-chloro-4-[(3-fluorophenyl)methoxy]phenyl]-6-[2-[[[2-(methylsulfonyl)ethyl]amino]methyl]-4-thiazolyl]-4-quinazolineamine dihydrochloride] | 63.6% | 75.4% | 42.7% | 58.2% | 50.9% | 68.4% | 40.9% | 56.1% | 48.4% | 64.2% | 56.1% | 68.8% | 56.3% | 60.7% | 42.3% | 44.8% | 68.5% | –
COc1cc2ncnc(Nc3cccc(Cl)c3)c2cc1OC [Inhibitor 1] | 34.9% | 48.0% | 26.0% | 56.4% | 29.1% | 57.9% | 29.3% | 19.3% | 21.2% | 53.8% | 45.0% | 52.9% | 47.2% | 44.7% | 46.0% | 20.8% | 33.9% | –
COc1cc2ncnc(Nc3ccc(OCc4ccccc4)cc3)c2cc1OC [Inhibitor 3, 4-(4-benzyloxyanilino)-6,7-dimethoxyquinazoline] | 43.3% | 11.3% | 15.1% | 42.0% | 30.2% | 56.4% | 25.7% | 29.8% | 22.9% | 40.0% | 38.0% | 59.8% | 42.2% | 42.3% | 24.1% | 38.5% | 48.7% | –
